SMILES strings stand for the structures.

These results are taken from patent US11161855B2, “Tricyclic fused thiophene derivatives as JAK inhibitors” (Incyte Corporation, priority 2012, dated 2021).

This experiment relates to human JAK1 (a.a. 837-1142). The experiment can be described thus: In vitro JAK kinase assay (HTRF), JAK1. It counts as biochemical. Conditions: ratio of IC50s, 1 mM ATP. The method, then:
Compounds herein were tested for inhibitory activity of JAK targets according to the following in vitro assay described in Park et al., Analytical Biochemistry 1999, 269, 94-104. The catalytic domains of human JAK1 (a.a. 837-1142), JAK2 (a.a. 828-1132) and JAK3 (a.a. 781-1124) were expressed using baculovirus in insect cells and purified. The catalytic activity of JAK1, JAK2 or JAK3 was assayed by measuring the phosphorylation of a biotinylated peptide. The phosphorylated peptide was detected by homogenous time resolved fluorescence (HTRF). IC50s of compounds were measured for each kinase in the 40 μL reactions that contain the enzyme, ATP and 500 nM peptide in 50 mM Tris (pH 7.8) buffer with 100 mM NaCl, 5 mM DTT, and 0.1 mg/mL (0.01%) BSA. For the 1 mM IC50 measurements, ATP concentration in the reactions was 1 mM. Reactions were carried out at room temperature for 1 hour and then stopped with 20 μL 45 mM EDTA, 300 nM SA-APC, 6 nM Eu-Py20 in assay buffer (Perkin Elmer, Boston, Mass.). Binding to the Europium labeled antibody took place for 40 minutes and HTRF signal was measured on a PHERA star plate reader (BMG, Cary, N.C.). The Example compounds were each tested in the Example A assay (see Table 1 for data for the compounds of the examples as tested by the assay of Example A at 1 mM ATP).
On the technique in general: Time-resolved FRET reads energy transfer from a long-lived donor to a nearby acceptor.
As to `CNS(=O)(=O)C[C@H]1CC[C@H](n2c([C@@H](C)O)nc3cnc4ccsc4c32)CC1` [Example 14, 1-(trans-4-{2-[(1R)-1-hydroxyethyl]-1H-imidazo[4,5-d]thieno[3,2-b]pyridin-1-yl}cyclohexyl)-N-methylmethanesulfonamide], the JAK2/JAK1 is recorded as >5.

For `N#CCc1nc2cnc3ccsc3c2n1[C@H]1CC[C@H](CC#N)OC1` [Example 73, {(2R,5S)-5-[2-(Cyanomethyl)-1H-imidazo[4,5-d]thieno[3,2-b]pyridin-1-yl]tetrahydro-2H-pyran-2-yl}acetonitrile], the JAK2/JAK1 is >10.

Take `N#CC[C@H]1CC[C@H](n2c(CO)nc3cnc4ccsc4c32)CO1` [Example 91, {(2R,5S)-5-[2-(Hydroxymethyl)-1H-imidazo[4,5-d]thieno[3,2-b]pyridin-1-yl]tetrahydro-2H-pyran-2-yl}acetonitrile]: the JAK2/JAK1 is reported as >10.

On to `C[C@@H](O)c1nc2cnc3ccsc3c2n1C1CCCCC1` [Example 13, (1R)-1-(1-Cyclohexyl-1H-imidazo[4,5-d]thieno[3,2-b]pyridin-2-yl)ethanol], for which the JAK2/JAK1 is on record as >10.

On to `Cc1nc2cnc3ccsc3c2n1[C@H]1CC[C@H](CC#N)OC1` [Example 38, [(2R,5S)-5-(2-Methyl-1H-imidazo[4,5-d]thieno[3,2-b]pyridin-1-yl)tetrahydro-2H-pyran-2-yl]acetonitrile], for which the JAK2/JAK1 is >10.

Turning to `N#CC[C@H]1CC[C@H](n2c(C3CC3)nc3cnc4ccsc4c32)CC1` [Example 26, [trans-4-(2-Cyclopropyl-1H-imidazo[4,5-d]thieno[3,2-b]pyridin-1-yl)cyclohexyl]acetonitrile], the JAK2/JAK1 is reported as >10.

Consider `C[C@@H](O)c1nc2cnc3ccsc3c2n1[C@H]1CC[C@H](CNC(=O)OC2CCOC2)CC1` (stereo partly drawn) [Example 85, Tetrahydrofuran-3-yl [(trans-4-{2-[(1R)-1-hydroxyethyl]-1H-imidazo[4,5-d]thieno[3,2-b]pyridin-1-yl}cyclohexyl)methyl]carbamate], for which the JAK2/JAK1 was >10.

As to `Cc1nc2cnc3ccsc3c2n1[C@H]1CC[C@H](CC#N)CC1` [Example 48, [trans-4-(2-Methyl-1H-imidazo[4,5-d]thieno[3,2-b]pyridin-1-yl)cyclohexyl]acetonitrile], the JAK2/JAK1 was >7.

For `C[C@@H](O)c1nc2cnc3ccsc3c2n1[C@H]1CCCN(C(=O)CCc2cn[nH]c2)C1` [Example 53, (1R)-1-(1-{(3S)-1-[3-(1H-Pyrazol-4-yl)propanoyl]piperidin-3-yl}-1H-imidazo[4,5-d]thieno[3,2-b]pyridin-2-yl)ethanol], the JAK2/JAK1 is reported as >10.

With `C[C@@H](O)c1nc2cnc3ccsc3c2n1C1CCN(CC(F)(F)F)CC1` [Example 15, (1R)-1-{1-[1-(2,2,2-Trifluoroethyl)piperidin-4-yl]-1H-imidazo[4,5-d]thieno[3,2-b]pyridin-2-yl}ethanol], the JAK2/JAK1 is on record as >9.

`N#CCC1CCC(CO)(n2cnc3cnc4ccsc4c32)CC1` (single isomer, unassigned) [72 (second peak), [4-(Hydroxymethyl)-4-(1H-imidazo[4,5-d]thieno[3,2-b]pyridin-1-yl)cyclohexyl]acetonitrile]: the JAK2/JAK1 is >5.

As for `C[C@@H](O)c1nc2cnc3ccsc3c2n1[C@H]1CC[C@H](CC#N)CC1.Cl` [Example 10, (trans-4-{2-[(1R)-1-Hydroxyethyl]-1H-imidazo[4,5-d]thieno[3,2-b]pyridin-1-yl}cyclohexyl)acetonitrile HCl Salt], the JAK2/JAK1 is >10.

Turning to `C[C@@H](O)c1nc2cnc3ccsc3c2n1[C@H]1CC[C@H](CCC#N)CC1` [Example 8, 3-(trans-4-{2-[(1R)-1-Hydroxyethyl]-1H-imidazo[4,5-d]thieno[3,2-b]pyridin-1-yl}cyclohexyl)propanenitrile], the JAK2/JAK1 is listed as >10.

As to `N#CC[C@H]1CC[C@H](n2/c(=N/C#N)[nH]c3cnc4ccsc4c32)CC1.O=C(O)C(F)(F)F` [Example 25, {(2E)-1-[trans-4-(Cyanomethyl)cyclohexyl]-1,3-dihydro-2H-imidazo[4,5-d]thieno[3,2-b]pyridin-2-ylidene}cyanamide Trifluoroacetate], the JAK2/JAK1 is reported as >6.

As for `C[C@@H](O)c1nc2cnc3ccsc3c2n1[C@H]1CC[C@H](CNC(=O)N(C)C)CC1` [Example 81, N′-[(trans-4-{2-[(1R)-1-Hydroxyethyl]-1H-imidazo[4,5-d]thieno[3,2-b]pyridin-1-yl}cyclohexyl)methyl]-N,N-dimethylurea], the JAK2/JAK1 is >10.

On to `N#CC[C@H]1CC[C@H](n2c(C3CC3)nc3cnc4ccsc4c32)CO1` [Example 43, [(2R,5S)-5-(2-Cyclopropyl-1H-imidazo[4,5-d]thieno[3,2-b]pyridin-1-yl)tetrahydro-2H-pyran-2-yl]acetonitrile], for which the JAK2/JAK1 was >10.

Turning to `CS(=O)(=O)NCc1nc2cnc3ccsc3c2n1[C@H]1CC2CCC1C2` (stereo partly drawn) [Example 22, N-((1-((2S)-Bicyclo[2.2.1]heptan-2-yl)-1H-imidazo[4,5-d]thieno[3,2-b]pyridin-2-yl)methyl)methanesulfonamide], the JAK2/JAK1 is recorded as >4.

On to `C[C@@H](O)c1nc2cnc3ccsc3c2n1[C@H]1CCN(CCCC(F)(F)F)C1` [Example 64, (1R)-1-{1-[(3S)-1-(4,4,4-Trifluorobutyl)pyrrolidin-3-yl]-1H-imidazo[4,5-d]thieno[3,2-b]pyridin-2-yl}ethanol], for which the JAK2/JAK1 is >10.

Turning to `CC(C)OC(=O)NC[C@H]1CC[C@H](n2c([C@@H](C)O)nc3cnc4ccsc4c32)CC1` [Example 84, Isopropyl [(trans-4-{2-[(1R)-1-hydroxyethyl]-1H-imidazo[4,5-d]thieno[3,2-b]pyridin-1-yl}cyclohexyl)methyl]carbamate], the JAK2/JAK1 is on record as >10.

`C[C@@H](O)c1nc2cnc3ccsc3c2n1[C@H]1CC[C@H](CCS(C)(=O)=O)CC1` [Example 5, (1R)-1-(1-{trans-4-[2-(Methylsulfonyl)ethyl]cyclohexyl}-1H-imidazo[4,5-d]thieno[3,2-b]pyridin-2-yl)ethanol]: the JAK2/JAK1 is >10.

With `CC(N)c1nc2cnc3ccsc3c2n1[C@H]1CC[C@H](CC#N)OC1.O=C(O)C(F)(F)F` (stereo partly drawn) [Example 68, {(2R,5S)-5-[2-(1-Aminoethyl)-1H-imidazo[4,5-d]thieno[3,2-b]pyridin-1-yl]tetrahydro-2H-pyran-2-yl}acetonitrile Trifluoro Acetate], the JAK2/JAK1 is on record as >10.

On to `C[C@@H](O)c1nc2cnc3ccsc3c2n1C1CCC(O)(CC#N)CC1` (single isomer, unassigned) [24 (second peak)], for which the JAK2/JAK1 is >10.

In the case of `CNC(C)c1nc2cnc3ccsc3c2n1[C@H]1CC[C@H](CC#N)OC1` (stereo partly drawn) [Example 70, ((2R,5S)-5-{2-[1-(Methylamino)ethyl]-1H-imidazo[4,5-d]thieno[3,2-b]pyridin-1-yl}tetrahydro-2H-pyran-2-yl)acetonitrile], the JAK2/JAK1 is listed as >10.

For `C[C@@H](O)c1nc2cnc3ccsc3c2n1[C@H]1CCN(CCCC#N)C1` [Example 65, 4-((3S)-3-{2-[(1R)-1-Hydroxyethyl]-1H-imidazo[4,5-d]thieno[3,2-b]pyridin-1-yl}pyrrolidin-1-yl)butanenitrile], the JAK2/JAK1 was >10.

Take `CC(=O)NC[C@H]1CC[C@H](n2c([C@@H](C)O)nc3cnc4ccsc4c32)CC1` [Example 79, N-[(trans-4-{2-[(1R)-1-Hydroxyethyl]-1H-imidazo[4,5-d]thieno[3,2-b]pyridin-1-yl}cyclohexyl)methyl]acetamide]: the JAK2/JAK1 was >10.

With `CC(C)OC(=O)NC[C@H]1CC[C@H](n2c(CC#N)nc3cnc4ccsc4c32)CC1` [Example 88, Isopropyl ({trans-4-[2-(cyanomethyl)-1H-imidazo[4,5-d]thieno[3,2-b]pyridin-1-yl]cyclohexyl}methyl)carbamate], the JAK2/JAK1 was >10.

With `CC(F)c1nc2cnc3ccsc3c2n1[C@H]1CC[C@H](CC#N)OC1` (stereo partly drawn) [Example 71, {(2R,5S)-5-[2-(1-Fluoroethyl)-1H-imidazo[4,5-d]thieno[3,2-b]pyridin-1-yl]tetrahydro-2H-pyran-2-yl}acetonitrile], the JAK2/JAK1 was >10.

For the molecule `C[C@@H](O)c1nc2cnc3ccsc3c2n1[C@H]1CC[C@H](CC#N)CC1` [Example 2, (trans-4-{2-[(1R)-1-Hydroxyethyl]-1H-imidazo[4,5-d]thieno[3,2-b]pyridin-1-yl}cyclohexyl)acetonitrile], the JAK2/JAK1 is >10.

Take `Cc1nc2cnc3ccsc3c2n1[C@H]1CC[C@H](CC#N)[C@@H](O)C1` (single isomer, unassigned) [41 (first peak)]: the JAK2/JAK1 was >10.

As to `C[C@@H](O)c1nc2cnc3ccsc3c2n1[C@H]1CCCN(CCC#N)C1` [Example 56, 3-((3S)-3-{2-[(1R)-1-Hydroxyethyl]-1H-imidazo[4,5-d]thieno[3,2-b]pyridin-1-yl}piperidin-1-yl)propanenitrile], the JAK2/JAK1 was >10.

As to `C[C@@H](O)c1nc2cnc3ccsc3c2n1[C@H]1CCN(C(=O)CC#N)C1` [Example 63, 3-((3S)-3-{2-[(1R)-1-Hydroxyethyl]-1H-imidazo[4,5-d]thieno[3,2-b]pyridin-1-yl}pyrrolidin-1-yl)-3-oxopropanenitrile], the JAK2/JAK1 is on record as >6.
